From US20140073651A1, “BENZAMIDE DERIVATIVES AS P2X7 RECEPTOR ANTAGONISTS” (Actelion Pharmaceuticals Ltd., priority 2011, published 2014)

Target: T1, human recombinant P2X7 receptor (Homo sapiens, UniProt Q99572)
T1 construct: expressed in transfected cells
T1 sequence (Q99572 1-595): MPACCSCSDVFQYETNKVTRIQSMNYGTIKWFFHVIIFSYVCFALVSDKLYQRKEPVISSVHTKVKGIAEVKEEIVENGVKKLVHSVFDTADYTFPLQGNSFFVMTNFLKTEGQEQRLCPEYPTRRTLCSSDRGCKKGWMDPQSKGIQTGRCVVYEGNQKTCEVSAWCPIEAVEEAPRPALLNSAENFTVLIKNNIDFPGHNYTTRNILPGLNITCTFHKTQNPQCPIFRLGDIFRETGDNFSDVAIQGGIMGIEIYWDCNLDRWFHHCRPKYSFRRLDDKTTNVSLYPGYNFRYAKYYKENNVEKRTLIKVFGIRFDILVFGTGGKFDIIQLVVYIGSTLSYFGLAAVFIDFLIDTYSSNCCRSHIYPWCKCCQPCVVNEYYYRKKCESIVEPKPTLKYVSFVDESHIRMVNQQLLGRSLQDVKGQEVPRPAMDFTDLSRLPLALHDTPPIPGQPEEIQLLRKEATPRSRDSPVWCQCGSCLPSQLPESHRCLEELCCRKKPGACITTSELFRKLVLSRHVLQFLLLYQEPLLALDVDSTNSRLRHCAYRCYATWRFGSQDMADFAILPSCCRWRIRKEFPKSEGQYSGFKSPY
Assay: YO-PRO assay (YO-PRO-1 uptake) in HEK cells stably expressing P2X7
Format: cell-based
Conditions: HEK-293 cells expressing human recombinant P2X7 receptor; ATP 250 μM, 90 minutes; YO-PRO-1 fluorescence (FLIPR tetra); read-out: IC50 (antagonistic activity with respect to the P2X7 receptor)
Procedure, shortened: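 Antagonist serially diluted (duplicates) on P2X7-expressing HEK cells in buffer with 0.5 μM YO-PRO-1; dye uptake followed on FLIPR Tetra over four time points. IC50 from maximum fluorescence intensity versus compound concentration.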

Molecule `Cc1ccc(N(C)c2cc[nH]c(=O)n2)cc1C(=O)NCC1(O)CCCCC1` [Example 155, N-(1-Hydroxy-cyclohexylmethyl)-2-methyl-5-[methyl-(2-oxo-1,2-dihydro-pyrimidin-4-yl)-amino]-benzamide] has an IC50 of 0.199 µM.
